Source: patent publication US9127001B2, “Substituted 4,5,6,7-tetrahydro-1H-pyrazolo[4,3-c]pyridines, their use as medicament, and pharmaceutical preparations comprising them” (Sanofi, priority 2011, dated 2015)
pIC50: −log10 of the molar value.

Target: Human TASK-1 channels (Homo sapiens (Human), UniProt O14649)
Test: Activity on the TASK-1 channel in Xenopus oocytes (two-microelectrode voltage clamp)
Type: cell-based
Details: not given
Description: Human TASK-1 channels were expressed in Xenopus oocytes. For this purpose, oocytes were isolated from Xenopus laevis and defoliculated. Subsequently, TASK-1-encoding RNA synthesized in vitro was injected into oocytes. […] Data were acquired and analyzed using a TEC-10cx amplifier (NPI Electronic, Tamm, Germany) connected to an ITC-16 interface (Instrutech Corp., Long Island, USA) and Pulse software (HEKA Elektronik, Lambrecht, Germany). […] Oocytes were continuously superfused with ND96 buffer containing: NaCl 96 mM, KCl 2 mM, CaCl2 1.8 mM, MgCl2 1 mM, HEPES 5 mM (pH adjusted to 7.4 with NaOH). All experiments were performed at room temperature.
Test substances were consecutively added to the bath solution at rising concentrations. […] IC50 values were obtained by fitting the data to the general dose-response equation.

Human TASK-1 channels, sequence (O14649 whole entry): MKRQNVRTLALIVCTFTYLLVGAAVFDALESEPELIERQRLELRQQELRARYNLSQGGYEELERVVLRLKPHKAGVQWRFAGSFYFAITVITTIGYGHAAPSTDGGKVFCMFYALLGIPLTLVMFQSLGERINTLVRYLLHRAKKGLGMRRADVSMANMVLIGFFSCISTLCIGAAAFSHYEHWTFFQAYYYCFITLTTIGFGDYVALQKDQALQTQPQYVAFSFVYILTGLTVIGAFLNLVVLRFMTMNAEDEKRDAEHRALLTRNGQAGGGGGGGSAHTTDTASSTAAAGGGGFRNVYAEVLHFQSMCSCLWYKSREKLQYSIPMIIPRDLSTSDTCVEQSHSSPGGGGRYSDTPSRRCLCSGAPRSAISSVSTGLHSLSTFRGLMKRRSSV

SMILES	inhibition at 5 µM [%]
CC(=O)N1CCc2c(c(-c3ccnc(Br)c3)nn2Cc2ccc(F)cc2F)C1 [Example 6k, 1-[3-(2-Bromo-pyridin-4-yl)-1-(2,4-difluoro-benzyl)-1,4,6,7-tetrahydro-pyrazolo[4,3-c]pyridin-5-yl]-ethanone]	78
CC(=O)N1CCc2c(c(-c3cccc(C(F)(F)F)n3)nn2C(C)c2ccc(F)cc2)C1 (centres unmarked) [Example 6u, 1-[1-[1-(4-Fluoro-phenyl)-ethyl]-3-(6-trifluoromethyl-pyridin-2-yl)-1,4,6,7-tetrahydro-pyrazolo[4,3-c]pyridin-5-yl]-ethanone]	89
CC(=O)N1CCc2c(c(-c3cccc(C)n3)nn2Cc2ccc(F)cc2F)C1 [Example 6v, 1-[1-(2,4-Difluoro-benzyl)-3-(6-methyl-pyridin-2-yl)-1,4,6,7-tetrahydro-pyrazolo[4,3-c]pyridin-5-yl]-ethanone]	73
CC(=O)N1CCc2c(c(-c3cc(C)ccn3)nn2Cc2ccc(F)cc2F)C1 [Example 6x, 1-[1-(2,4-Difluoro-benzyl)-3-(4-methyl-pyridin-2-yl)-1,4,6,7-tetrahydro-pyrazolo[4,3-c]pyridin-5-yl]-ethanone]	82

Second part, the molecule after the results:

inhibition at 5 µM [%]	SMILES
70	COc1ccccc1Cn1nc(-c2cccc(C(F)(F)F)c2)c2c1CCN(C(C)=O)C2 [Example 6bc, 1-[1-(2-Methoxy-benzyl)-3-(3-trifluoromethyl-phenyl)-1,4,6,7-tetrahydro-pyrazolo[4,3-c]pyridin-5-yl]-ethanone]
81	CC(=O)N1CCc2c(c(-c3cccc(C(F)(F)F)c3)nn2Cc2ccc(C)cc2F)C1 [Example 6bn, 1-[1-(2-Fluoro-4-methyl-benzyl)-3-(3-trifluoromethyl-phenyl)-1,4,6,7-tetrahydro-pyrazolo[4,3-c]pyridin-5-yl]-ethanone]
88	CC(=O)N1CCc2c(c(-c3cccc(C)c3)nn2Cc2ccc(Cl)nc2)C1 [Example 6p, 1-[1-(6-Chloro-pyridin-3-ylmethyl)-3-m-tolyl-1,4,6,7-tetrahydro-pyrazolo[4,3-c]pyridin-5-yl]-ethanone]
70	COc1ccnc(Cn2nc(-c3cccc(C(F)(F)F)c3)c3c2CCN(C(C)=O)C3)c1 [Example 6q, 1-[1-(4-Methoxy-pyridin-2-ylmethyl)-3-(3-trifluoromethyl-phenyl)-1,4,6,7-tetrahydro-pyrazolo[4,3-c]pyridin-5-yl]-ethanone]
79	CC(=O)N1CCc2c(c(-c3cccc(C)c3)nn2Cc2cnccc2Cl)C1 [Example 6r, 1-[1-(4-Chloro-pyridin-3-ylmethyl)-3-m-tolyl-1,4,6,7-tetrahydro-pyrazolo[4,3-c]pyridin-5-yl]-ethanone]
83	COc1cccnc1Cn1nc(-c2cccc(C(F)(F)F)c2)c2c1CCN(C(C)=O)C2 [Example 6s, 1-[1-(3-Methoxy-pyridin-2-ylmethyl)-3-(3-trifluoromethyl-phenyl)-1,4,6,7-tetrahydro-pyrazolo[4,3-c]pyridin-5-yl]-ethanone]
62	CC(=O)N1CCc2c(c(-c3cccc(Cl)c3)nn2Cc2ncccc2C)C1 [Example 6t, 1-[3-(3-Chloro-phenyl)-1-(3-methyl-pyridin-2-ylmethyl)-1,4,6,7-tetrahydro-pyrazolo[4,3-c]pyridin-5-yl]-ethanone]
86	COc1cccc(-c2nn(Cc3ccc(F)cc3F)c3c2CN(C(C)=O)CC3)n1 [Example 6y, 1-[1-(2,4-Difluoro-benzyl)-3-(6-methoxy-pyridin-2-yl)-1,4,6,7-tetrahydro-pyrazolo[4,3-c]pyridin-5-yl]-ethanone]
75	COc1ccc(-c2nn(Cc3ccc(F)cc3F)c3c2CN(C(C)=O)CC3)nc1Cl [Example 6z, 1-[3-(6-Chloro-5-methoxy-pyridin-2-yl)-1-(2,4-difluoro-benzyl)-1,4,6,7-tetrahydro-pyrazolo[4,3-c]pyridin-5-yl]-ethanone]

Same assay, conditions: human TASK-1 expressed in Xenopus oocytes, currents during pulses to 40 mV, room temperature

SMILES	pIC50
CC(=O)N1CCc2c(c(-c3ccc(F)c(C#N)c3)nn2Cc2ccc(F)cc2F)C1 [Example 6bi, 5-[5-Acetyl-1-(2,4-difluoro-benzyl)-4,5,6,7-tetrahydro-1H-pyrazolo[4,3-c]pyridin-3-yl]-2-fluoro-benzonitrile]	5.78
CC(=O)N1CCc2c(c(-c3ccc(C(F)(F)F)cc3)nn2Cc2ccc(F)cc2F)C1 [Example 6bk, 1-[1-(2,4-Difluoro-benzyl)-3-(4-trifluoromethyl-phenyl)-1,4,6,7-tetrahydro-pyrazolo[4,3-c]pyridin-5-yl]-ethanone]	5.94
CC(=O)N1CCc2c(c(-c3ccc(F)cc3)nn2Cc2ccc(F)cc2F)C1 [Example 6f, 1-[1-(2,4-Difluoro-benzyl)-3-(4-fluoro-phenyl)-1,4,6,7-tetrahydro-pyrazolo[4,3-c]pyridin-5-yl]-ethanone]	6.22
CC(=O)N1CCc2c(c(-c3cccc(C(F)(F)F)n3)nn2Cc2ccc(F)cc2)C1 [Example 6g, 1-[1-(4-Fluoro-benzyl)-3-(6-trifluoromethyl-pyridin-2-yl)-1,4,6,7-tetrahydro-pyrazolo[4,3-c]pyridin-5-yl]-ethanone]	7.00
CC(=O)N1CCc2c(c(-c3cc(C(F)(F)F)ccn3)nn2Cc2ccc(F)cc2F)C1 [Example 6h, 1-[1-(2,4-Difluoro-benzyl)-3-(4-trifluoromethyl-pyridin-2-yl)-1,4,6,7-tetrahydro-pyrazolo[4,3-c]pyridin-5-yl]-ethanone]	6.72
CC(=O)N1CCc2c(c(-c3cccc(C(F)(F)F)n3)nn2Cc2ccc(F)cc2F)C1 [Example 6i, 1-[1-(2,4-Difluoro-benzyl)-3-(6-trifluoromethyl-pyridin-2-yl)-1,4,6,7-tetrahydro-pyrazolo[4,3-c]pyridin-5-yl]-ethanone]	6.67
CC(=O)N1CCc2c(c(-c3cc(Br)ccn3)nn2Cc2ccc(F)cc2F)C1 [Example 6j, 1-[3-(4-Bromo-pyridin-2-yl)-1-(2,4-difluoro-benzyl)-1,4,6,7-tetrahydro-pyrazolo[4,3-c]pyridin-5-yl]-ethanone]	> 5.00
CC(=O)N1CCc2c(c(-c3cncc(Br)c3)nn2Cc2ccc(F)cc2F)C1 [Example 6m, 1-[3-(5-Bromo-pyridin-3-yl)-1-(2,4-difluoro-benzyl)-1,4,6,7-tetrahydro-pyrazolo[4,3-c]pyridin-5-yl]-ethanone]	5.61
CC(=O)N1C2CCC1c1c(-c3cccc(C#N)c3)nn(Cc3ccc(F)cc3F)c1C2 (centres unmarked) [Example 6n, 3-[11-Acetyl-5-(2,4-difluoro-benzyl)-4,5,11-triaza-tricyclo[6.2.1.02,6]undeca-2(6),3-dien-3-yl]-benzonitrile]	7.04
CC(=O)N1C2CCC1c1c(-c3ccc(F)cc3)nn(Cc3ccc(F)cc3F)c1C2 (centres unmarked) [Example 6o, 1-[5-(2,4-Difluoro-benzyl)-3-(4-fluoro-phenyl)-4,5,11-triaza-tricyclo [6.2.1.02,6]undeca-2(6),3-dien-11-yl]-ethanone]	> 5.00
CC(=O)N1CCc2c(c(-c3cccc(Br)n3)nn2Cc2ccc(F)cc2F)C1 [Example 6w, 1-[3-(6-Bromo-pyridin-2-yl)-1-(2,4-difluoro-benzyl)-1,4,6,7-tetrahydro-pyrazolo[4,3-c]pyridin-5-yl]-ethanone]	> 5.00
CC1(C(=O)N2CCc3c(c(-c4cccc(C#N)c4)nn3Cc3ccc(F)cc3F)C2)COC1 [Example 8a, 3-[1-(2,4-Difluoro-benzyl)-5-(3-methyl-oxetane-3-carbonyl)-4,5,6,7-tetrahydro-1H-pyrazolo[4,3-c]pyridin-3-yl]-benzonitrile]	6.56
CC(C)C(=O)N1CCc2c(c(-c3cccc(C#N)c3)nn2Cc2ccc(F)cc2F)C1 [Example 8b, 3-[1-(2,4-Difluoro-benzyl)-5-isobutyryl-4,5,6,7-tetrahydro-1H-pyrazolo[4,3-c]pyridin-3-yl]-benzonitrile]	7.72

More lines, now with the values ahead:

pIC50	SMILES
> 5.00	COc1cccc(Cn2nc(-c3cccc(Cl)c3)c3c2CCN(C(C)=O)C3)c1 [Example 6bd, 1-[3-(3-Chloro-phenyl)-1-(3-methoxy-benzyl)-1,4,6,7-tetrahydro-pyrazolo[4,3-c]pyridin-5-yl]-ethanone]
6.40	CC(=O)N1CCc2c(c(-c3ccc(F)cc3)nn2Cc2ccc(Cl)c(F)c2)C1 [Example 6bg, 1-[1-(4-Chloro-3-fluoro-benzyl)-3-(4-fluoro-phenyl)-1,4,6,7-tetrahydro-pyrazolo[4,3-c]pyridin-5-yl]-ethanone]
> 5.00	COc1ccc(F)c(-c2nn(Cc3ccc(F)cc3F)c3c2CN(C(C)=O)CC3)c1 [Example 6bh, 1-[1-(2,4-Difluoro-benzyl)-3-(2-fluoro-5-methoxy-phenyl)-1,4,6,7-tetrahydro-pyrazolo[4,3-c]pyridin-5-yl]-ethanone]
5.94	CC(=O)N1CCc2c(c(-c3cccc(F)c3)nn2Cc2ccc(F)cc2F)C1 [Example 6bj, 1-[1-(2,4-Difluoro-benzyl)-3-(3-fluoro-phenyl)-1,4,6,7-tetrahydro-pyrazolo[4,3-c]pyridin-5-yl]-ethanone]
6.67	CC(=O)N1CCc2c(c(-c3cccc(C(F)(F)F)c3)nn2Cc2cnccc2Cl)C1 [Example 6c, 1-[1-(4-Chloro-pyridin-3-ylmethyl)-3-(3-trifluoromethyl-phenyl)-1,4,6,7-tetrahydro-pyrazolo[4,3-c]pyridin-5-yl]-ethanone]
6.37	CC(=O)N1CCc2c(c(-c3cccc(C(F)(F)F)c3)nn2Cc2ncccc2C)C1 [Example 6d, 1-[1-(3-Methyl-pyridin-2-ylmethyl)-3-(3-trifluoromethyl-phenyl)-1,4,6,7-tetrahydro-pyrazolo[4,3-c]pyridin-5-yl]-ethanone]
